PubChem BioAssay AID250 (DTP/NCI, 2004)
Values joined by “and” are separate entries in the source; they are usually repeats but may differ in a detail not shown here. Equal entries are not always repeated. Inconclusive results and toxic doses are left out.

System: BDF1 mice, L1210 leukemia sc, survival T/C
Assay: NCI In Vivo Anticancer Drug Screen. Data for tumor model L1210 Leukemia (subcutaneous) in B6D2F1 (BDF1) mice
Conditions: higher = longer survival
Method: The antitumor activity of compounds was measured in mice bearing transplantable tumors. Survival or tumor size were measured and the results are expressed as the measurement made in the treated group (T) divided by the measurement made in the vehicle treated control group (C). The tumor model used in this assay is L1210 Leukemia (subcutaneous) in B6D2F1 (BDF1) mice

Compound: O=c1[nH]cc(N(CCCl)CCCl)c(=O)[nH]1
- T/C (endpoint: median survival time, dose: 0.23 mg/kg/injection, schedule: Q01DX Z (sc), vehicle: other): 100 % of control
- T/C (endpoint: median survival time, dose: 0.39 mg/kg/injection, schedule: Q01DX Z (sc), vehicle: other): 100 % of control
- T/C (endpoint: median survival time, dose: 0.65 mg/kg/injection, schedule: Q01DX Z (sc), vehicle: other): 100 % of control
- T/C (endpoint: median survival time, dose: 1.08 mg/kg/injection, schedule: Q01DX Z (sc), vehicle: other): 100 % of control
- T/C (endpoint: median survival time, dose: 1.8 mg/kg/injection, schedule: Q01DX Z (sc), vehicle: other): 105 % of control and 110 % of control
- T/C (endpoint: median survival time, dose: 3.0 mg/kg/injection, schedule: Q01DX Z (sc), vehicle: other): 110 % of control and 115 % of control
- T/C (endpoint: median survival time, dose: 5.0 mg/kg/injection, schedule: Q01DX Z (sc), vehicle: other): 150 % of control and 160 % of control
- T/C (endpoint: median survival time, dose: 8.4 mg/kg/injection, schedule: Q01DX Z (sc), vehicle: other): 100 % of control and 120 % of control
- T/C (endpoint: median survival time, dose: 14.0 mg/kg/injection, schedule: Q01DX Z (sc), vehicle: other): 120 % of control

Compound: COC(=O)c1[nH]cnc1/N=N/N(C)C
- T/C (endpoint: median survival time, dose: 14.0 mg/kg/injection, schedule: Q01DX Z (sc), vehicle: saline): 109 % of control
- T/C (endpoint: median survival time, dose: 23.0 mg/kg/injection, schedule: Q01DX Z (sc), vehicle: saline): 100 % of control
- T/C (endpoint: median survival time, dose: 39.0 mg/kg/injection, schedule: Q01DX Z (sc), vehicle: saline): 109 % of control
- T/C (endpoint: median survival time, dose: 65.0 mg/kg/injection, schedule: Q01DX Z (sc), vehicle: saline): 104 % of control
- T/C (endpoint: median survival time, dose: 108.0 mg/kg/injection, schedule: Q01DX Z (sc), vehicle: saline): 159 % of control

Compound: COc1cc2c3c(c4ccc(OC)c(OC)c4c2cc1OC)CN1CCC[C@@H]1C3
- T/C (endpoint: median survival time, dose: 3.0 mg/kg/injection, schedule: Q01DX Z (sc), vehicle: carboxymethylcellulose (CMC)): 100 % of control
- T/C (endpoint: median survival time, dose: 5.0 mg/kg/injection, schedule: Q01DX Z (sc), vehicle: carboxymethylcellulose (CMC)): 100 % of control
- T/C (endpoint: median survival time, dose: 8.4 mg/kg/injection, schedule: Q01DX Z (sc), vehicle: carboxymethylcellulose (CMC)): 100 % of control
- T/C (endpoint: median survival time, dose: 14.0 mg/kg/injection, schedule: Q01DX Z (sc), vehicle: carboxymethylcellulose (CMC)): 95 % of control
- T/C (endpoint: median survival time, dose: 23.0 mg/kg/injection, schedule: Q01DX Z (sc), vehicle: carboxymethylcellulose (CMC)): 90 % of control and 105 % of control
- T/C (endpoint: median survival time, dose: 39.0 mg/kg/injection, schedule: Q01DX Z (sc), vehicle: carboxymethylcellulose (CMC)): 100 % of control
- T/C (endpoint: median survival time, dose: 65.0 mg/kg/injection, schedule: Q01DX Z (sc), vehicle: carboxymethylcellulose (CMC)): 110 % of control
- T/C (endpoint: median survival time, dose: 108.0 mg/kg/injection, schedule: Q01DX Z (sc), vehicle: carboxymethylcellulose (CMC)): 105 % of control
- T/C (endpoint: median survival time, dose: 180.0 mg/kg/injection, schedule: Q01DX Z (sc), vehicle: carboxymethylcellulose (CMC)): 115 % of control

Compound: CS(=O)(=O)Nc1ccc(Nc2c3ccccc3nc3ccccc23)cc1
- T/C (endpoint: mean survival time, dose: 10.0 mg/kg/injection, schedule: Q01DX009 (ip), vehicle: saline): 96 % of control
- T/C (endpoint: mean survival time, dose: 20.0 mg/kg/injection, schedule: Q01DX009 (ip), vehicle: saline): 103 % of control
- T/C (endpoint: mean survival time, dose: 40.0 mg/kg/injection, schedule: Q01DX009 (ip), vehicle: saline): 111 % of control
- T/C (endpoint: mean survival time, dose: 80.0 mg/kg/injection, schedule: Q01DX009 (ip), vehicle: saline): 90 % of control

Compound: CS(=O)(=O)OCCCCOS(C)(=O)=O
- T/C (endpoint: median survival time, dose: 6.25 mg/kg/injection, schedule: Q01DX009 (ip), vehicle: Klucel (hydroxypropylcellulose) (HPC)): 93 % of control
- T/C (endpoint: median survival time, dose: 6.25 mg/kg/injection, schedule: Q01DX009 (sc), vehicle: Klucel (hydroxypropylcellulose) (HPC)): 97 % of control
- T/C (endpoint: median survival time, dose: 12.5 mg/kg/injection, schedule: Q01DX009 (ip), vehicle: Klucel (hydroxypropylcellulose) (HPC)): 103 % of control
- T/C (endpoint: median survival time, dose: 12.5 mg/kg/injection, schedule: Q01DX009 (sc), vehicle: Klucel (hydroxypropylcellulose) (HPC)): 96 % of control
- T/C (endpoint: median survival time, dose: 23.0 mg/kg/injection, schedule: Q01DX Z (sc), vehicle: methylcellulose (MC)): 103 % of control
- T/C (endpoint: median survival time, dose: 25.0 mg/kg/injection, schedule: Q01DX009 (ip), vehicle: Klucel (hydroxypropylcellulose) (HPC)): 106 % of control
- T/C (endpoint: median survival time, dose: 25.0 mg/kg/injection, schedule: Q01DX009 (sc), vehicle: Klucel (hydroxypropylcellulose) (HPC)): 105 % of control
- T/C (endpoint: median survival time, dose: 47.0 mg/kg/injection, schedule: Q01DX Z (sc), vehicle: methylcellulose (MC)): 105 % of control
- T/C (endpoint: median survival time, dose: 50.0 mg/kg/injection, schedule: Q01DX009 (ip), vehicle: Klucel (hydroxypropylcellulose) (HPC)): 101 % of control
- T/C (endpoint: median survival time, dose: 50.0 mg/kg/injection, schedule: Q01DX009 (sc), vehicle: Klucel (hydroxypropylcellulose) (HPC)): 96 % of control
- T/C (endpoint: median survival time, dose: 65.0 mg/kg/injection, schedule: Q01DX Z (sc), vehicle: methylcellulose (MC)): 96 % of control
- T/C (endpoint: median survival time, dose: 78.0 mg/kg/injection, schedule: Q01DX Z (sc), vehicle: methylcellulose (MC)): 110 % of control
- T/C (endpoint: median survival time, dose: 108.0 mg/kg/injection, schedule: Q01DX Z (sc), vehicle: methylcellulose (MC)): 96 % of control
- T/C (endpoint: median survival time, dose: 130.0 mg/kg/injection, schedule: Q01DX Z (sc), vehicle: methylcellulose (MC)): 100 % of control
- T/C (endpoint: median survival time, dose: 180.0 mg/kg/injection, schedule: Q01DX Z (sc), vehicle: methylcellulose (MC)): 103 % of control
- T/C (endpoint: median survival time, dose: 300.0 mg/kg/injection, schedule: Q01DX Z (sc), vehicle: methylcellulose (MC)): 100 % of control
